# According to patent publication US9296748B2, “Pyridinones” (Boehringer Ingelheim International GmbH, priority 2013, dated 2016):
# Molecular target: BRD4-BD1 (Homo sapiens (Human), UniProt O60885)
# Test: BRD4-H4 Tetraacetylated Peptide Inhibition AlphaScreen
# Type: binding
# Details: GST-BRD4-BD1 (aa 44-168), biotinylated Acetyl-Histone H4 peptide
# Procedure: Compounds are diluted in serial dilution 1:5 in assay buffer from 10 mM stock in DMSO (100 μM start concentration) in white OptiPlate-384 (PerkinElmer). […] Subsequently, 6 μl of premixed AlphaLISA Glutathione Acceptor Beads and AlphaScreen Streptavidin Donor Beads from PerkinElmer (in assay buffer at a concentration of 10 μg/ml each) are added and the samples are incubated for 30 min at RT in the dark (shaking 300 rpm). Afterwards, the signal is measured in a PerkinElmer Envision HTS Multilabel Reader using the AlphaScreen protocol from PerkinElmer. […] Negative control values are entered as low basis value when using the software GraphPad Prism for calculations. Furthermore, a positive control (probe molecule JQ1+ with protein/peptide mix) is pipetted. Determination of IC50 values are carried out using GraphPad Prism 3.03 software (or updates thereof).
row,IC50,Compound
1,108 nM,CCCOc1ccc2nc(-c3cc(C)c(=O)n(C)c3)n([C@@H](C)c3ccccc3)c2n1 [III-6]
2,220 nM,Cc1cc(-c2nc3ccc(OC(C)C)nc3n2C(C)c2ccccn2)cn(C)c1=O (stereo not shown) [III-7]
3,217 nM,Cc1cc(-c2nc3ccc(OC4CCN(C)CC4)nc3n2C(C)c2ccccn2)cn(C)c1=O (stereo not shown) [III-9]
4,313 nM,Cc1cc(-c2nc3ncccc3n2Cc2ccccc2)cn(C)c1=O [IV-1]
5,218 nM,CC1CC(=O)NN=C1c1ccc2c(c1)nc(-c1ccc(=O)n(C)c1)n2Cc1ccccc1 (stereo not shown) [IV-2]
6,188 nM,Cc1cc(-c2nc3cc(Cl)cnc3n2Cc2ccccc2)cn(C)c1=O [IV-3]
7,60 nM,Cc1cc(-c2nc3ccncc3n2Cc2ccccc2)cn(C)c1=O [IV-4]
8,32 nM,Cc1cc(-c2nc3cc(N4CCOCC4)cnc3n2Cc2ccccc2)cn(C)c1=O [IV-5]
9,23 nM,Cc1cc(-c2nc3cc(N4CCN(C)CC4)cnc3n2Cc2ccccc2)cn(C)c1=O [IV-6]
10,16 nM,Cc1cc(-c2nc3cc(C4CCOCC4)cnc3n2Cc2ccccc2)cn(C)c1=O [IV-7]
11,70 nM,Cc1cnc2c(c1)nc(-c1cc(C)c(=O)n(C)c1)n2Cc1ccccc1 [IV-8]
12,119 nM,Cc1cc(-c2nc3cc(S(=O)(=O)N(C)C)cnc3n2Cc2ccccc2)cn(C)c1=O [IV-9]
13,109 nM,Cc1cc(-c2nc3cccc(C)c3n2Cc2ccccn2)cn(C)c1=O [IV-10]
14,12 nM,Cc1cc(-c2nc3cnc(N4CCOC[C@@H]4C)nc3n2[C@@H](C)c2ccccc2)cn(C)c1=O [IV-11]
15,38 nM,Cc1cc(-c2nc3cc(N)cnc3n2Cc2ccccc2)cn(C)c1=O [IV-12]
16,4810 nM,Cc1cc(-c2nc3cc(Cl)c(Cl)cc3n2Cc2ccc(Cl)c(Cl)c2)cn(C)c1=O [IV-13]
17,50 nM,Cc1cc(-c2nc3cnc(N4CCOCC4)nc3n2Cc2ccccc2)cn(C)c1=O [IV-14]
18,17 nM,Cc1cc(-c2nc3cnc(N4CCOCC4)nc3n2[C@@H](C)c2ccccc2)cn(C)c1=O [IV-15]
19,136 nM,"CNc1cc(-c2nc3ccccc3n2Cc2ccccc2)cn(C)c1=O [VI-1, 5-(1-benzyl-1H-1,3-benzodiazol-2-yl)-1-methyl-3-(methylamino)-1,2-dihydropyridin-2-one]"

# The next lines start with the compound.
row,Compound,IC50
1,COC[C@H](C)n1c(-c2cc(C)c(=O)n(C)n2)nc2cnc(N3CCOC[C@@H]3C)cc21 [II-30],62 nM
2,Cc1cc(-c2nc3cnc(N4CCOC[C@@H]4C)cc3n2[C@@H](C)c2ccccc2)cn(C)c1=O [II-31],40 nM
3,Cn1cc(-c2nc3cnc(N4CCOCC4)cc3n2Cc2ccccc2)cc(Cl)c1=O [II-32],105 nM
4,Cc1cc(-c2nc3cnc(C(C)C)cc3n2[C@@H](C)c2ccccn2)cn(C)c1=O [II-33],169 nM
5,Cc1cc(-c2nc3cnc(C4CCOCC4)cc3n2[C@@H](C)c2ccccn2)cn(C)c1=O [II-34],120 nM
6,Cc1cc(-c2nc3cnc(C4=CCOCC4)cc3n2C(C)c2ccccn2)cn(C)c1=O (stereo not shown) [II-35],211 nM
7,Cc1cc(-c2nc3cnc(Cl)cc3n2C(C)c2ccccn2)cn(C)c1=O (stereo not shown) [II-36],650 nM
8,Cc1cc(-c2nc3cnc(N4CCOCC4)cc3n2C(C)c2ccccn2)cn(C)c1=O (stereo not shown) [II-37],172 nM
9,Cc1cc(-c2nc3cnc(OC(C)C)cc3n2[C@@H](C)c2ccccn2)cn(C)c1=O [II-38],205 nM
10,Cc1cc(-c2nc3cnc(OC4CCOC4)cc3n2[C@@H](C)c2ccccn2)cn(C)c1=O (stereo partly shown) [II-39],211 nM
11,Cc1cc(-c2nc3cnc(C4=CCCCO4)cc3n2C(C)c2ccccn2)cn(C)c1=O (stereo not shown) [II-40],295 nM
12,Cc1c(-c2nc3cnc(N4CCN(C)CC4)cc3n2Cc2ccccc2)cn(C)c(=O)c1C [II-41],1200 nM
13,Cc1cc(-c2nc3cnc(N)cc3n2[C@@H](C)c2ccccc2)cn(C)c1=O [II-42],35 nM
14,Cc1cc(-c2nc3cnc(N4CCOC[C@@H]4C)cc3n2C(C)CC2CC2)cn(C)c1=O (stereo partly shown) [II-43],50 nM
15,CCOc1cc(=O)n(C)cc1-c1nc2cnc(C3CCOCC3)cc2n1[C@@H](C)c1ccccc1 [II-44],188 nM
16,Cc1cc(-c2nc3cnc(C4CCOCC4)cc3n2[C@H](C)c2ccccc2)cn(C)c1=O [II-45],95 nM
17,"CN1CCN(c2ccc3nc(-c4ccc(=O)n(C)c4)n(Cc4ccccc4)c3n2)CC1 [III-1, 5-[3-Benzyl-5-(4-methyl-piperazin-1-yl)-3H-imidazo[4,5-b]pyridin-2-yl]-1-methyl-1H-pyridin-2-one]",697 nM
18,Cn1cc(-c2nc3cccnc3n2Cc2ccccc2)ccc1=O [III-2],1780 nM
19,Cc1cc(-c2nc3cccnc3n2Cc2ccccc2)cn(C)c1=O [III-3],45 nM
20,Cc1cc(-c2nc3ccc(OC(C)C)nc3n2[C@@H](C)c2ccccn2)nn(C)c1=O [III-4],118 nM
21,Cc1cc(-c2nc3ccc(OC(C)C)nc3n2[C@@H](C)c2ccccc2)nn(C)c1=O [III-5],117 nM
